Usually ED50 stands for the dose that gives a 50% effect, or the effect in half of the subjects. A higher ED50 goes with a need for a large dose.

The structures appear in SMILES notation. Structures can show the parent of a compound that is named as a salt.

For the assay, the system named is depressant effects induced in mice by tetrabenazine. Briefly: Blocking of the depressant effects induced in mice by intravenous tetrabenazine (modified Englehardt procedure). As to conditions: Mus musculus, IP. It is filed as in vivo. The procedure: The activity of the compounds was determined by their effectiveness in blocking the depressant effects which are induced in mice by the intravenous administration of 2-oxo-3-isobutyl-9,10-dimethoxy-1,2,3,4,6,7-hexahydro-11bh-benzo[a] quinolizine (tetrabenazine). The procedure used was a modification of Englehardt, E. L. et al, J. Med. Chem. 11 (2), 325(1968). The ED50 values of the compounds are given in Table I; the compounds of Examples 3, 5, 7 and 8 are the preferred compounds.

`CNCCC(O)(c1cccc(C(F)(F)F)c1)C1CC1` (centres unmarked) [Example 8, 1-Cyclopropyl-3-methylamino-1-(3-trifluoromethylphenyl)-1-propanol] yielded an ED50 of 4.6 mg/kg. Under `CN(C)CCC(O)(c1cccc(C(F)(F)F)c1)C1CC1` (centres unmarked) [Example 5, 1-Cyclopropyl-3-dimethylamino-1-(3-trifluoromethylphenyl)-1-propanol Hydrochloride] stands 2.5 mg/kg; under `CN(C)CCC(O)(c1cccc(Cl)c1)C1CC1` (centres unmarked) [Example 3, 1-Cyclopropyl-3-dimethylamino-1-(3-chlorophenyl)-1-propanol Hydrochloride], 6.4 mg/kg. Under `CN(C)CCCC(O)(c1ccccc1)C1CC1` (centres unmarked) [Example 2, 1-Cyclopropyl-4-dimethylamino-1-phenyl-1-butanol Hydrochloride] stands 12.5 mg/kg; under `CN(C)CCC(O)(c1ccc(C(F)(F)F)cc1)C1CC1` (centres unmarked) [Example 6, 1-Cyclopropyl-3-dimethylamino-1-(4-trifluoromethylphenyl)-1-propanol Hydrochloride], 12 mg/kg; under `CCN(CC)CCC(O)(c1cccc(C(F)(F)F)c1)C1CC1` (centres unmarked) [Example 7, 1-Cyclopropyl-3-diethylamino-1-(3-trifluoromethylphenyl)-1-propanol Hydrochloride], 4.2 mg/kg.

`COc1ccc(C(O)(CCN(C)C)C2CC2)cc1` (centres unmarked) [Example 4, 1-Cyclopropyl-3-dimethylamino-1-(4-methoxyphenyl)-1-propanol Hydrobromide] came in with an ED50 of 7.8 mg/kg. Regarding `CN(C)CCC(O)(c1ccccc1)C1CC1` (centres unmarked) [Example 1, 1-Cyclopropyl-3-dimethylamino-1-phenyl-1-propanol Hydrochloride], the ED50 was 10 mg/kg.

Values taken from patent US3978130A, “1-Cyclopropyl-1-phenyl-ω-amino-1-alkanols” (A. H. Robins Company, Incorporated, priority 1974, dated 1976).
